Test [1] has as its target Casein kinase II alpha'/ beta (Homo sapiens) (UniProt P67870+P19784). As to the kind of experiment: Ratio of Ki for ATP uncompetitive inhibition to Ki for ATP competitive inhibition of recombinant human CK2alpha2 (1 to 335 residues)/CK2beta2 (1 to 193 residues) expressed in Escherichia coli BL21(DE3).
The target in test [2] is Casein kinase II alpha/beta (Homo sapiens, UniProt P68400). As to the kind of experiment: ATP competitive inhibition of recombinant human CK2alpha2 (1 to 335 residues)/CK2beta2 (1 to 193 residues) expressed in Escherichia coli BL21(DE3) using RRRDDDSDDD as substrate preincubated for 10 mins followed by substrate addition and measured after 5 mins in presence of varying level of [gamma-32P]ATP by Dixon-plot analysis.

The record followed here is ChEMBL document CHEMBL4610128, “Structural and Mechanistic Basis of the Inhibitory Potency of Selected 2-Aminothiazole Compounds on Protein Kinase CK2” (J Med Chem, 2020).

The structures appear in SMILES notation.

Take `O=C(O)c1cccc(Nc2nc(-c3ccccn3)cs2)c1`: the Ratio Ki in test [1] came to 36.5. In addition, the Ki in test [2] was determined as 1.47 µM.

Take `O=C(O)c1ccc(Nc2nc(-c3ccc(Cl)cc3)cs2)cc1O`: in test [1], the Ratio Ki amounted to 16.3. In addition, the Ki in test [2] was 0.206 µM.
